Test results as given in patent US20210113540A1, “TREATMENT AGENT AND PHARMACEUTICAL COMPOSITION FOR GLIOMA” (NATIONAL UNIVERSITY CORPORATION HOKKAIDO UNIVERSITY, priority 2018, published 2021).
Read-outs that look alike come from different tables or passages of the source.

Tested on: Glioma-initiating cell E6R
Experiment: Cell growth test (MTT) on GICR strain E6R
Type: cell-based
Settings: Homo sapiens, 72 h
Method: GICR strain: Cell growth test was performed using E6R (Stem Cells. 2016 August; 34(8):2016-25.).
Cell culture solutions were obtained by mixing a medium prepared by adding various compounds, bFGF (Peprotech, 100-18B) and EGF (Peprotech, 100-15) to DMEM/Ham's F-12 medium (SIGMA, D8062) and a medium prepared by adding FCS (Hyclone, SH30910.03) to DMEM medium (Nacalai tesque, 08458-45) to a concentration of 10% for use.
Each compound adjusted to a predetermined concentration was dispensed into a 96-well plate (Falcon, 353072) at 80 μL/well, and E6 cells and E6R cells were seeded on the 96-well plate at 1000 cells/80 μL/well. After 3 days, 10 μL of an MTT reagent (DOJINDO, 341-01823) was added, the cells were incubated at 37° C. for 3 hours, the culture solution was removed, and 100 μL of DMSO was added. The absorbance at 570 nm was measured using Bio-Rad iMark (Bio-Rad, 168-1130JA). The growth inhibition rate at each test compound concentration was calculated by the following formula using the absorbance as an index of the viable cell count.
The growth inhibition rate at each compound concentration was determined, and the 50% growth inhibition concentration GI50 (μmol/L)] was calculated using XLfit. Growth inhibition rate (%)=(Amount of luminescence from wells supplemented with test compound)/(Amount of luminescence from wells supplemented with DMSO)×100
GIC and GICR strain: Cell growth test was performed using E6, E6R, E16, and E16R (Stem Cells. 2016 August; 34(8): 2016-25.).

[1] = MTT after 3 days, read-out: ER6 GI50
[2] = class of ER6 GI50, MTT after 3 days, read-out: Evaluation

| GI50 [1] | GI50 [2] | Structure (SMILES) |
| --- | --- | --- |
| 0.00319 µM | < 1 µM | O=C(O)c1cc(C2CC2)cnc1Nc1ccc2c(-c3ccccc3)nccc2c1 [Compound 16, 5-cyclopropyl-2-((1-phenylisoquinoline-6-yl)amino)nicotinic acid] |
| 0.0476 µM | < 1 µM | O=C(O)c1cc(C2CC2)cnc1Nc1c(F)cc2c(ccn2Cc2ccccc2)c1F [Compound 14, 2-((1-benzyl-4,6-difluoro-1H-indole-5-yl)amino)-5-cyclopropylnicotinic acid] |
| 0.00177 µM | < 1 µM | O=C(O)c1cc(C2CC2)cnc1Nc1ccc2c(-c3ccccc3)cccc2c1 [Compound 10, 5-cyclopropyl-2-((5-phenylnaphthalene-2-yl)amino)nicotinic acid] |
| 0.0114 µM | < 1 µM | O=C(O)c1cc(C2CC2)cnc1Nc1cc2ccn(Cc3ccccc3)c2cc1F [Compound 13, 2-((1-benzyl-6-fluoro-1H-indole-5-yl)amino)-5-cyclopropylnicotinic acid] |
| 0.00169 µM | < 1 µM | Cn1ccc2cc(Nc3ncc(C4CC4)cc3C(=O)O)cc(-c3ccccc3F)c21 [Compound 4, 5-cyclopropyl-2-((7-(2-fluorophenyl)-1-methyl-1H-indole-5-yl)amino)nicotinic acid] |
| < 0.00014 µM | < 1 µM | Cn1ccc2cc(Nc3ncc(C4CC4)cc3C(=O)O)cc(-c3ccc(OC(F)(F)F)cc3)c21 [Compound 7, 5-cyclopropyl-2-((1-methyl-7-(4-(trifluoromethoxy)phenyl)-1H-indole-5-yl)amino)nicotinic acid] |
| 0.00477 µM | < 1 µM | Cn1ccc2cc(Nc3ncc(C4CC4)cc3C(=O)O)cc(-c3ccccc3)c21 [Compound 11, 5-cyclopropyl-2-((1-methyl-7-phenyl-1H-indole-5-yl)amino)nicotinic acid] |

The remaining lines, values behind:

| Structure (SMILES) | GI50 [1] | GI50 [2] |
| --- | --- | --- |
| Cn1ccc2cc(Nc3ncc(C4CC4)cc3C(=O)O)cc(-c3cccc(Cl)c3)c21 [Compound 6, 2-((7-(3-chlorophenyl)-1-methyl-1H-indole-5-yl)amino)-5-cyclopropylnicotinic acid] | 0.00223 µM | < 1 µM |
| O=C(O)c1cc(C2CC2)ccc1Nc1ccc2c(cnn2Cc2ccccc2)c1 [Compound 1, 2-((1-benzyl-1h-indazole-5-yl)amino)-5-cyclopropylbenzoate] | 0.0306 µM | < 1 µM |
| Cn1ccc2cc(Nc3ncc(C4CC4)cc3C(=O)O)cc(-c3ccc(Cl)cc3)c21 [Compound 18, 2-((7-(4-chlorophenyl)-1-methyl-1H-indole-5-yl)amino)-5-cyclopropylnicotinic acid] | 0.00062 µM | < 1 µM |
| O=C(O)c1cc(C2CC2)cnc1Nc1cccc2c(-c3ccccc3)cccc12 [Compound 9, 5-cyclopropyl-2-((5-phenylnaphthalene-1-yl)amino)nicotinic acid] | 0.00435 µM | < 1 µM |
| Cn1ccc2cc(Nc3ncc(C4CC4)cc3C(=O)O)cc(-c3ccc(C(F)(F)F)cc3)c21 [Compound 5] | < 0.00014 µM | < 1 µM |
| O=C(O)c1cc(C2CC2)cnc1Nc1ccc2c(ccn2-c2cccc(F)c2)c1 [Compound 12, 5-cyclopropyl-2-((1-(3-fluorophenyl)-1H-indole-5-yl)amino)nicotinic acid] | 0.0239 µM | < 1 µM |
| Cn1ccc2cc(Nc3ncc(C4CC4)cc3C(=O)O)cc(-c3ccc(C#N)cc3)c21 [Compound 17, 2-((7-(4-cyanophenyl)-1-methyl-1H-indole-5-yl)amino)-5-cyclopropylnicotinic acid] | 0.00296 µM | < 1 µM |
| Cn1ccc2cc(Nc3ncc(C4CC4)cc3C(=O)O)cc(C3=CCCCC3)c21 [Compound 20] | 0.00036 µM | < 1 µM |
| O=C(O)c1cc(C2CC2)cnc1Nc1cccc2c1ccn2-c1ccccc1 [Compound 3, 5-cyclopropyl-2-((1-phenyl-1H-indole-4-yl)amino)nicotinic acid] | 0.011 µM | < 1 µM |
